Here are results for ten compounds from US20240207238A1, “INHIBITORS OF PROTEIN TYROSINE PHOSPHATASE, COMPOSITIONS, AND METHODS OF USE” (BRISTOL-MYERS SQUIBB COMPANY, priority 2022, published 2024).

Read-outs that look alike come from different tables or passages of the source.

The subject of test [1] is phosphorylated STAT1 in B16-F10 cells. As to the kind of experiment: Phospho-STAT1 (Tyr701) HTRF assay in B16-F10 cells. The following applies: 100 ng/mL mouse IFN-gamma, 1 hour, read-out: pSTAT1 HTRF B16 EC50. The test is classed as cell-based. As to the method:
B16-F10 cells (ATCC, Manassas, VA, #CRL-6475) were cultured in DMEM growth medium (ThermoFisher Scientific, Waltham, MA, #11995-040) supplemented with 10% heat-inactivated FBS (ThermoFisher Scientific, #16140-071) and 1% pen/strep (ThermoFisher Scientific, #15140-122). The cells were seeded into a white opaque 384-well tissue culture treated microplate (PerkinElmer, Waltham, MA, #6007688) at a density of 10,000 cells/well in 20 uL total volume and incubated overnight at 37 C and 5% CO2. 30 nL of compounds dissolved in DMSO were then transferred from a source plate into target wells with the Echo650 acoustic liquid handler (Beckman Coulter, Indianapolis, IN). Negative control wells received 30 nL of DMSO only (0.15% final concentration). Plates were returned to the incubator for 1 hour and then cells were treated with either 5 uL of growth medium or 5 uL of growth medium containing 500 ng/ml of recombinant mouse IFN-gamma protein (R&D Systems, Minneapolis, MN, #485-MI/CF, 100 ng/mL final concentration) using the Assist automated pipetting platform (INTEGRA Biosciences, Hudson, NH). Plates were incubated at 37 C for 1 hour and assayed for phosphorylated STAT1 protein levels with the phospho-STAT1 (Tyr701) HTRF kit (Cisbio, Bedford, MA, #63ADK026PEH) according to the manufacturer's instructions.
For orientation: TR-FRET usually uses a lanthanide donor and a delayed reading to cut background.

The target in test [2] is T1, PTPN2 (Homo sapiens (Human), UniProt P17706). As to the kind of experiment: Phosphatase activity assay using DiFMUP as substrate. It counts as biochemical. The following applies: 0.15 nM PTPN2, read-out: PTPN2 BChem DIFMUP IC50. The procedure: The PTPN2 biochemical assay was performed as follows, a 5× stock solution of human PTPN2 (SRP5075, MilliporeSigma, Burlington, MA) and a 1.25× stock solution of DiFMUP (D6567, ThermoFisher Scientific, Waltham, MA), were prepared in 1× reaction buffer consisting of 50 mM HEPES, pH 7.4, 1 mM EDTA, 150 mM NaCl, 0.2 mg/mL BSA, 100 U/mL catalase and 10 mM DTT. […] of the DiFMUP substrate solution, for a final concentration of […] DiFMUP substrate, was added to a Corning 3574 384-well, white, non-binding surface microtiter plate containing […] of serially diluted test compounds prepared in DMSO. The reactions were started with the addition of […] of the enzyme solution, for a final PTPN2 concentration of 0.15 nM, and monitored every 105 seconds for 60 minutes at MEX 360/2EM 460 in a BioTek Synergy HTX plate reader (Agilent Technologies, Santa Clara, CA) at room temperature. The initial linear portions of the progress curves were fit according to a linear equation to yield the slopes and converted to % inhibition based on a value of 100% activity for the no inhibitor treated control. IC50 values of each compound were obtained by fitting the % inhibition-compound concentration curves using Dotmatics software (Dotmatics, Bishops Stortford, Hertfordshire, England).
(§1) For IC50 data, High DDT concentration and/or DiFMUP substrate assays were used; a skilled artisan may use either assay.

In test [3] the test system is B16-F10 cells. As to the kind of experiment: Cell proliferation assay (CellTiter-Glo) in B16-F10 cells with IFN-gamma. It counts as cell-based. The following applies: 10 ng/ml mouse IFN-gamma, read-out: Prolif. 5d B16 GI50. In general terms: Cellular ATP, detected with luciferase, serves as a proxy for viable cell number.
The target of test [4] is T1, PTPN2. Kind of test: PTPN2 biochemical assay, high DTT (PhosphoSens). Particulars: high DTT concentration assay; read-out: PTPN2 BChem HIGHDTT IC50. As to the method:
A PhosphoSens® kinase assay was performed as described by the vendor (AssayQuant Technologies, Marlborough, MA). Briefly, 1000× solutions of compounds were prepared in DMSO via serial dilution of the 10 mM DMSO stocks using 3-fold intervals in a 384-well reagent plate. 50 nL of the compound dilution series was then added to the corresponding wells of a 384-well assay plate. […] Finally, […] of 5×PTPN2 enzyme stock was added to each well of the assay plate for a final enzyme concentration of 150 pM. Reaction progress curves were collected by sampling fluorescence intensity at the excitation wavelength 360 nm (Quex360) and emission wavelength 480 nm (λem480) every 71 seconds for one hour using a Synergy H4 plate reader (BioTek Instruments/Agilent Technologies, Winooski, VT) at room temperature.
as §1

T1 sequence (P17706 whole entry): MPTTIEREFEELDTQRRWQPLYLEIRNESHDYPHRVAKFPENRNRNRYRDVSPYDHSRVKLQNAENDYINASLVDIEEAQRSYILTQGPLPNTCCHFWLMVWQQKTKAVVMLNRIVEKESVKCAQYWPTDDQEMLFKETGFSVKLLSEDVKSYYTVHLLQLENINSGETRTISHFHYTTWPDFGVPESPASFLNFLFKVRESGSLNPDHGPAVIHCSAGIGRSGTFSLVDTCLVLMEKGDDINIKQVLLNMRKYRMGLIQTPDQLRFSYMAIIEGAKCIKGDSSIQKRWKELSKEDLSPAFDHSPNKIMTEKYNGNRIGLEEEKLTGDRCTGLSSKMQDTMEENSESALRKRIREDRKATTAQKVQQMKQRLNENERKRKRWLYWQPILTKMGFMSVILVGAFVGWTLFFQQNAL

In the case of “5-(4-(((4,6-dimethylpyridin-2-yl)amino)methyl)-6-fluoro-1H-indazol-7-yl)-1,2,5-thiadiazolidin-3-one 1,1-dioxide [Example 6]”, the EC50 (as a rule, the concentration that produces a half-maximal response) in test [1] was determined as 3690 nM. In addition, the IC50 – broadly, the concentration that gives 50% inhibition – in test [2] stood at 83 nM. Also, in test [3], the GI50 – broadly, the concentration that inhibits growth by half – is 3260 nM.

On to “5-(6-fluoro-4-(((4-methoxy-5-methylpyridin-2-yl)amino)methyl)-1H-indazol-7-yl)-1,2,5-thiadiazolidin-3-one 1,1-dioxide [Example 7]”, for which the EC50 in test [1] is > 15000 nM. Also, the IC50 in test [2] worked out at 199 nM. Moreover, in test [3], the GI50 is > 15000 nM.

Take “5-(6-fluoro-4-(((5-methoxypyridin-2-yl)amino)methyl)-1H-indazol-7-yl)-1,2,5-thiadiazolidin-3-one 1,1-dioxide [Example 2]”: the EC50 in test [1] amounted to 1880 nM. The values for the IC50 in test [2] and in test [4] were 24 nM and 42 nM, respectively. Moreover, the GI50 in test [3] turned out to be 880 nM.

Consider “5-[6-fluoro-4-[[(3-methyl-2-pyridyl) amino] methyl]-1H-indazol-7-yl]-1,1-dioxo-1,2,5-thiadiazolidin-3-one [Example 10]”, for which, in test [1], the EC50 was determined as 14000 nM. The IC50 in test [2] amounted to 16 nM. Further, in test [3], the GI50 came to 3970 nM.

For “5-[6-fluoro-4-[[(4-methoxy-2-pyridyl)amino]methyl]-1H-indazol-7-yl]-1,1-dioxo-1,2,5-thiadiazolidin-3-one [Example 3]”, in test [1], the EC50 was determined as 764 nM. The values for the IC50 in test [2] and in test [4] were 9 nM and 6 nM, respectively. The GI50 in test [3] was 350 nM.

“5-[6-fluoro-4-[[(4-methyl-2-pyridyl)amino]methyl]-1H-indazol-7-yl]-1,1-dioxo-1,2,5-thiadiazolidin-3-one [Example 5]”: in test [1], the EC50 is 440 nM. Moreover, the IC50 in test [2] worked out at 8 nM; in test [4] it was 5 nM. The concentration for 50% growth inhibition (GI50) in test [3] amounted to 166 nM.

For the compound “5-[6-fluoro-4-[[(6-methoxy-2-pyridyl)amino]methyl]-1H-indazol-7-yl]-1,1-dioxo-1,2,5-thiadiazolidin-3-one [Example 1]”, in test [1], the EC50 stood at 287 nM. For the same compound, the figures for the IC50 in test [2] and in test [4] were 2 nM and 5 nM, respectively. Besides, the GI50 in test [3] worked out at 160 nM.

Regarding `O=C1CN(c2c(F)cc(CNc3cc(C4CC4)ccn3)c3cn[nH]c23)S(=O)(=O)N1` [Example 4, 5-[4-[[(4-cyclopropyl-2-pyridyl)amino]methyl]-6-fluoro-1H-indazol-7-yl]-1,1-dioxo-1,2,5-thiadiazolidin-3-one], the EC50 in test [1] came out at 3120 nM. The results for the half-maximal inhibitory concentration (IC50) in test [2] and in test [4] were 2 nM and 1 nM, respectively. For the same compound, in test [3] (120 h), the GI50 amounted to 2690 nM.

On to `Cc1cc(NCc2cc(F)c(N3CC(=O)NS3(=O)=O)c3[nH]ncc23)ncc1C#N` [Example 8, 6-[[6-fluoro-7-(1,1,4-trioxo-1,2,5-thiadiazolidin-2-yl)-1H-indazol-4-yl]methylamino]-4-methyl-pyridine-3-carbonitrile], for which the EC50 in test [1] is 9210 nM. The IC50 in test [2] worked out at 67 nM. In addition, the GI50 in test [3] (120 h) was > 15000 nM.

For the compound `COc1cc(C)nc(NCc2cc(F)c(N3CC(=O)NS3(=O)=O)c3[nH]ncc23)c1` [Example 9, 5-[6-fluoro-4-[[(4-methoxy-6-methyl-2-pyridyl)amino]methyl]-1H-indazol-7-yl]-1,1-dioxo-1,2,5-thiadiazolidin-3-one], in test [1], the EC50 was 91 nM. For the same compound, the IC50 in test [2] is 1 nM. The GI50 in test [3] (120 h) was determined as 20 nM.
